Key:
AMBEL (Ragweed, Common) [1] = test: Postemergence herbicidal evaluation; type: in vivo, Ambrosia artemisifolia; conditions: postemergence
How it was run: (§1)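 Rate range approx. 0.0156–0.500 kg/ha. Foliar application at 40 psi to ~2-week seedlings; surfactant 0.5% TWEEN 20 in 50/50 acetone/water. Evaluation 4–5 wk post-treatment by 0–9 visual injury score, means of replicate tests.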

CASOB (Sicklepod) [2] = test: Postemergence herbicidal evaluation; type: in vivo, Cassia obtusifolia; conditions: postemergence
How it was run: as §1

GALAP (Galium) [3] = test: Postemergence herbicidal evaluation; type: in vivo, Galium aparine; conditions: postemergence
How it was run: as §1

[4] = test system: IPOHE (Morningglory, Ivyleaf); test: Postemergence herbicidal evaluation; type: in vivo, Ipomoea hederacea; conditions: postemergence
How it was run: as §1

SETVI (Foxtail, Green) [5] = test: Postemergence herbicidal evaluation; type: in vivo, Setaria viridis; conditions: postemergence
How it was run: as §1

ORYSAT (Rice, Tebonnet) = test: Postemergence herbicidal evaluation; type: in vivo, Oryza sativa, (L.) Tebonnet; conditions: postemergence
How it was run: as §1

[6] = test system: TRZAWR (Wheat, Winter, cv Riband); test: Postemergence herbicidal evaluation; type: in vivo, Triticum aestivum; conditions: postemergence
How it was run: as §1

ZEAMX (Corn, Field) = test: Postemergence herbicidal evaluation; type: in vivo, Zea mays; conditions: postemergence
How it was run: as §1

AMBEL (Ragweed, Common) [7] = test: Preemergence herbicidal evaluation; type: in vivo, Ambrosia artemisifolia; conditions: rated 4-5 weeks after treatment
How it was run: (§2)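 In this greenhouse assay, monocot and dicot seeds are planted in soil and treated prior to emergence with an aqueous acetone spray (about 0.0156-0.500 kg/ha). Plants are assessed visually against control on a 0-9 scale after 4-5 weeks.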

CASOB (Sicklepod) [8] = test: Preemergence herbicidal evaluation; type: in vivo, Cassia obtusifolia; conditions: rated 4-5 weeks after treatment
How it was run: as §2

[9] = test system: CHEAL (Lambsquarters, Common); test: Preemergence herbicidal evaluation; type: in vivo, Chenopodium album; conditions: rate 0.2500 kg/ha; rated 4-5 weeks after treatment
How it was run: as §2

GALAP (Galium) [10] = test: Preemergence herbicidal evaluation; type: in vivo, Galium aparine; conditions: rated 4-5 weeks after treatment
How it was run: as §2

ECHCG (Barnyardgrass) = test: Preemergence herbicidal evaluation; type: in vivo, Echinochloa crus-galli; conditions: rated 4-5 weeks after treatment
How it was run: as §2

SETVI (Foxtail, Green) [11] = test: Preemergence herbicidal evaluation; type: in vivo, Setaria viridis; conditions: rated 4-5 weeks after treatment
How it was run: as §2

[12] = test system: TRZAWR (Wheat, Winter, cv Riband); test: Preemergence herbicidal evaluation; type: in vivo, Triticum aestivum; conditions: rated 4-5 weeks after treatment
How it was run: as §2

[13] = test system: ECHORC (Watergrass (Calif.)); test: Preemergence weed control under flooded paddy conditions; type: in vivo, Echinochloa oryzoides; conditions: rated 3-4 weeks after treatment
How it was run: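 Seeds or propagules sown in silt loam kept flooded 1.5-3 cm; compounds in 50/50 acetone/water pipetted into flood water at about 0.0313 to 0.500 kg/ha. Greenhouse; visual 0-9 rating versus untreated control 3-4 weeks after treatment.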

[14] = test system: SAGPY (Arrowhead (Pygmaea)); test: as above; type: in vivo, Sagittaria pygmaea; conditions: rated 3-4 weeks after treatment
How it was run: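 Herbicidal effect is scored visually on a 0-9 scale against an untreated control, three to four weeks after compounds are pipetted into the flood water (1.5 to 3 cm deep) over seeds planted in silt loam at 0.5 cm depth. Rates: about 0.0313 to 0.500 kg/ha.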

## CCOC(=O)CN1C(=O)C(CC(=O)O)SC1=Nc1cc(-n2nc(C)n(C(F)F)c2=O)c(F)cc1Cl (stereo not drawn) [Compound 112, 2-{{2-Chloro-5-[4-(difluoromethyl)-4,5-dihydro-3-methyl-5-oxo-1H-1,2,4-triazol-1-yl]-4-fluorophenyl}imino}-4-oxo-3,5-thiazolidinediacetic acid, 3-ethyl ester]
AMBEL (Ragweed, Common) [1]; rate 0.0158 kg/ha
  herbicidal rating AMBEL: 5.0
AMBEL (Ragweed, Common) [1]; rate 0.0315 kg/ha
  herbicidal rating AMBEL: 9.0
AMBEL (Ragweed, Common) [1]; rate 0.0630 kg/ha
  herbicidal rating AMBEL: 9.0
CASOB (Sicklepod) [2]; rate 0.0158 kg/ha
  herbicidal rating CASOB: 1.0
CASOB (Sicklepod) [2]; rate 0.0315 kg/ha
  herbicidal rating CASOB: 1.0
CASOB (Sicklepod) [2]; rate 0.0630 kg/ha
  herbicidal rating CASOB: 2.0
GALAP (Galium) [3]; rate 0.0158 kg/ha
  herbicidal rating GALAP: 0.0
GALAP (Galium) [3]; rate 0.0315 kg/ha
  herbicidal rating GALAP: 2.0
GALAP (Galium) [3]; rate 0.0630 kg/ha
  herbicidal rating GALAP: 2.0
[4]; rate 0.0158 kg/ha
  herbicidal rating IPOHE: 9.0
[4]; rate 0.0315 kg/ha
  herbicidal rating IPOHE: 9.0
[4]; rate 0.0630 kg/ha
  herbicidal rating IPOHE: 9.0
SETVI (Foxtail, Green) [5]; rate 0.0158 kg/ha
  herbicidal rating SETVI: 3.0
SETVI (Foxtail, Green) [5]; rate 0.0315 kg/ha
  herbicidal rating SETVI: 9.0
SETVI (Foxtail, Green) [5]; rate 0.0630 kg/ha
  herbicidal rating SETVI: 6.0
ORYSAT (Rice, Tebonnet); rate 0.0158 kg/ha
  herbicidal rating ORYSAT: 2.0
ORYSAT (Rice, Tebonnet); rate 0.0315 kg/ha
  herbicidal rating ORYSAT: 2.0
ORYSAT (Rice, Tebonnet); rate 0.0630 kg/ha
  herbicidal rating ORYSAT: 2.5
[6]; rate 0.0158 kg/ha
  herbicidal rating TRZAWR: 2.0
[6]; rate 0.0315 kg/ha
  herbicidal rating TRZAWR: 2.0
[6]; rate 0.0630 kg/ha
  herbicidal rating TRZAWR: 3.0
ZEAMX (Corn, Field); rate 0.0158 kg/ha
  herbicidal rating ZEAMX: 4.5
ZEAMX (Corn, Field); rate 0.0315 kg/ha
  herbicidal rating ZEAMX: 4.5
ZEAMX (Corn, Field); rate 0.0630 kg/ha
  herbicidal rating ZEAMX: 5.0
AMBEL (Ragweed, Common) [7]; rate 0.0313 kg/ha
  Preemergence herbicidal rating AMBEL: 0.0
AMBEL (Ragweed, Common) [7]; rate 0.0625 kg/ha
  Preemergence herbicidal rating AMBEL: 0.0
AMBEL (Ragweed, Common) [7]; rate 0.1250 kg/ha
  Preemergence herbicidal rating AMBEL: 0.0
AMBEL (Ragweed, Common) [7]; rate 0.2500 kg/ha
  Preemergence herbicidal rating AMBEL: 0.0
CASOB (Sicklepod) [8]; rate 0.0313 kg/ha
  Preemergence herbicidal rating CASOB: 0.0
CASOB (Sicklepod) [8]; rate 0.0625 kg/ha
  Preemergence herbicidal rating CASOB: 0.0
CASOB (Sicklepod) [8]; rate 0.1250 kg/ha
  Preemergence herbicidal rating CASOB: 0.0
CASOB (Sicklepod) [8]; rate 0.2500 kg/ha
  Preemergence herbicidal rating CASOB: 0.0
[9]
  Preemergence herbicidal rating CHEAL: 1.0
GALAP (Galium) [10]; rate 0.0313 kg/ha
  Preemergence herbicidal rating GALAP: 0.0
GALAP (Galium) [10]; rate 0.0625 kg/ha
  Preemergence herbicidal rating GALAP: 0.0
GALAP (Galium) [10]; rate 0.1250 kg/ha
  Preemergence herbicidal rating GALAP: 0.0
GALAP (Galium) [10]; rate 0.2500 kg/ha
  Preemergence herbicidal rating GALAP: 0.0
ECHCG (Barnyardgrass); rate 0.0313 kg/ha
  Preemergence herbicidal rating ECHCG: 0.0
ECHCG (Barnyardgrass); rate 0.0625 kg/ha
  Preemergence herbicidal rating ECHCG: 0.0
ECHCG (Barnyardgrass); rate 0.1250 kg/ha
  Preemergence herbicidal rating ECHCG: 0.0
ECHCG (Barnyardgrass); rate 0.2500 kg/ha
  Preemergence herbicidal rating ECHCG: 0.0
SETVI (Foxtail, Green) [11]; rate 0.0313 kg/ha
  Preemergence herbicidal rating SETVI: 1.0
SETVI (Foxtail, Green) [11]; rate 0.0625 kg/ha
  Preemergence herbicidal rating SETVI: 0.0
SETVI (Foxtail, Green) [11]; rate 0.1250 kg/ha
  Preemergence herbicidal rating SETVI: 0.0
SETVI (Foxtail, Green) [11]; rate 0.2500 kg/ha
  Preemergence herbicidal rating SETVI: 0.0
[12]; rate 0.0313 kg/ha
  Preemergence herbicidal rating TRZAWR: 0.0
[12]; rate 0.0625 kg/ha
  Preemergence herbicidal rating TRZAWR: 0.0
[12]; rate 0.1250 kg/ha
  Preemergence herbicidal rating TRZAWR: 0.0
[12]; rate 0.2500 kg/ha
  Preemergence herbicidal rating TRZAWR: 1.0
[13]; 0.0313 kg/ha
  ECHORC herbicidal effect rating: 0.0
[13]; 0.0625 kg/ha
  ECHORC herbicidal effect rating: 3.0
[13]; 0.1250 kg/ha
  ECHORC herbicidal effect rating: 3.0
[13]; 0.2500 kg/ha
  ECHORC herbicidal effect rating: 3.0
[14]; 0.0313 kg/ha
  SAGPY herbicidal effect rating: 6.0
[14]; 0.0625 kg/ha
  SAGPY herbicidal effect rating: 7.0
[14]; 0.1250 kg/ha
  SAGPY herbicidal effect rating: 7.0
[14]; 0.2500 kg/ha
  SAGPY herbicidal effect rating: 7.0
